Laboratory results reported in patent publication US8979831B2 (priority 2008, dated 2015).
“And” between values parts separate entries of the source, which are not always exact repeats. Identical values can stand only once. Like-named read-outs stand apart in the source and are kept apart here.

What was measured:
porcine liver samples = conditions: for Tissue destruction, visual observation: injected alone into porcine liver
liver parenchyma = test system: liver parenchyma; parameters: species or system porcine; conditions: for Final thermocouple pH after five minutes: after NaOH pre-injection
[1] = 100 microliters alone, 0:00 min
[2] = 100 microliters alone, 0:15 min
[3] = 100 microliters alone, 0:30 min
[4] = 100 microliters alone, 1:00 min
[5] = 100 microliters alone, 1:15 min

`CC(=O)OC(C)=O` [Acetic Anhydride] was tested, and the Recorded temperature changes (porcine liver samples) was 0.0-2.94 degrees C, the “Temperature change from baseline” value (porcine liver samples) was no less than 1.0 degree C and the pH (porcine liver samples; [1]) was 6.33 and 7.52 and 7.1 and 6.14 and 6.23. For the same molecule, the pH (porcine liver samples; [2]) was 5.2 and 3.75 and 3.34 and 5.7 and 6.03, the pH (porcine liver samples; [3]) was 5.06 and 3.54 and 3.2 and 5.63 and 6.01 and the pH (porcine liver samples; 100 microliters alone, 0:45 min) was 4.9 and 3.43 and 3.11 and 5.54 and 5.92. The pH (porcine liver samples; [4]) was 4.81 and 3.36 and 3.05 and 5.42 and 5.91, the pH (porcine liver samples; [5]) was 4.75 and 3.27 and 2.98 and 5.25 and 5.87 and the pH (porcine liver samples; 100 microliters alone, 2:00 min) was 4.47 and 3.09 and 2.77 and 4.3 and 5.5. For the same molecule, the pH (porcine liver samples; 100 microliters alone, 2:15 min) was 4.4 and 3.03 and 2.75 and 4.23 and 5.3, the pH (porcine liver samples; 100 microliters alone, 2:30 min) was 4.35 and 2.96 and 2.71 and 4.21 and 4.79 and the pH (porcine liver samples; 100 microliters alone, 2:45 min) was 4.3 and 2.92 and 2.68 and 4.16 and 4.65. The pH (porcine liver samples; 100 microliters alone, 3:00 min) was 4.25 and 2.9 and 2.65 and 4.12 and 4.57, the pH (porcine liver samples; 100 microliters alone, 3:15 min) was 4.22 and 2.88 and 2.61 and 4.01 and 4.48 and the pH (porcine liver samples; 100 microliters alone, 3:30 min) was 4.2 and 2.84 and 2.57 and 4.01 and 4.46. The pH (porcine liver samples; 100 microliters alone, 3:45 min) was 4.16 and 2.81 and 2.54 and 3.97 and 4.4, the pH (porcine liver samples; 100 microliters alone, 4:00 min) was 4.14 and 2.78 and 2.5 and 3.93 and 4.38 and the pH (porcine liver samples; 100 microliters alone, 4:15 min) was 4.1 and 2.75 and 2.49 and 3.86 and 4.35. The pH (porcine liver samples; 100 microliters alone, 4:30 min) was 4.09 and 2.74 and 2.46 and 3.84 and 4.32, the pH (porcine liver samples; 100 microliters alone, 4:45 min) was 4.06 and 2.72 and 2.42 and 3.8 and 4.3 and the pH (porcine liver samples; 100 microliters alone, 5:00 min) was 4.05 and 2.7 and 2.41 and 3.74 and 4.29. The pH (porcine liver samples; 200 microliters alone, 1:00 min) was 4.91 and 3.36 and 3.21 and 5.41 and 4.80, the “Changes, pH (lower line)” value (porcine liver samples; 200 microliters alone, lower line of Changes (fits 0:00 vs 5:00)) was 1.85 and 2.70 and 3.42 and 2.10 and 2.42 and the “Injections producing greater than one degree Celsius temperature change” value (porcine liver samples; 300 microliters alone) was “three out of five injections”. The “Tissue destruction, visual observation” value (porcine liver samples) was “larger volumes of Acetic Anhydride correlated with greater areas of tissue destruction”, the Recorded temperature change (liver parenchyma) was 1.4-9.4 degrees C and the “Final thermocouple pH after five minutes” value (liver parenchyma) was “overwhelmingly basic”.

For `CC(=O)Cl` [Acetyl Chloride], the Temp (porcine liver samples; 100 microliters alone, different temp probe, 0:00 min) was 16.4 C. and 17.1 C. and 17.4 C. and 16.6 C. and 17 C, the Temp (porcine liver samples; 100 microliters alone, different temp probe, 0:30 min) was 22.5 C. and 32 C. and 39 C. and 42.2 C. and 32.3 C and the Temp (porcine liver samples; 100 microliters alone, different temp probe, 0:45 min) was 21.5 C. and 27.5 C. and 33.5 C. and 33.9 C. and 27.3 C. The Temp (porcine liver samples; 100 microliters alone, different temp probe, 1:00 min) was 21 C. and 25 C. and 30.6 C. and 30.7 C. and 25.7 C, the Temp (porcine liver samples; 100 microliters alone, different temp probe, 1:15 min) was 20.2 C. and 24 C. and 28.4 C. and 27.8 C. and 23.9 C and the Temp (porcine liver samples; 100 microliters alone, different temp probe, 1:30 min) was 19.6 C. and 23.5 C. and 27 C. and 26.2 C. and 23.1 C. The Temp (porcine liver samples; 100 microliters alone, different temp probe, 1:45 min) was 19 C. and 22.7 C. and 25.6 C. and 25 C. and 22.3 C, the Temp (porcine liver samples; 100 microliters alone, different temp probe, 2:00 min) was 18.4 C. and 22.1 C. and 24.7 C. and 24.2 C. and 21.6 C and the Temp (porcine liver samples; 100 microliters alone, different temp probe, 2:15 min) was 18.3 C. and 21.4 C. and 23.9 C. and 23.2 C. and 21.1 C. The Temp (porcine liver samples; 100 microliters alone, different temp probe, 2:30 min) was 18.1 C. and 21.1 C. and 23.3 C. and 22.6 C. and 20.6 C, the Temp (porcine liver samples; 100 microliters alone, different temp probe, 2:45 min) was 18 C. and 20.6 C. and 22.6 C. and 22 C. and 20.2 C and the Temp (porcine liver samples; 100 microliters alone, different temp probe, 3:00 min) was 17.9 C. and 20.3 C. and 22.1 C. and 21.5 C. and 19.9 C. For the same molecule, the Temp (porcine liver samples; 100 microliters alone, different temp probe, 3:15 min) was 17.8 C. and 20.1 C. and 21.7 C. and 21.1 C. and 19.6 C, the Temp (porcine liver samples; 100 microliters alone, different temp probe, 3:45 min) was 17.6 C. and 19.5 C. and 21 C. and 20.4 C. and 19.1 C and the Temp (porcine liver samples; 100 microliters alone, different temp probe, 4:00 min) was 17.5 C. and 19.4 C. and 20.7 C. and 20.1 C. and 18.9 C. The Temp (porcine liver samples; 100 microliters alone, different temp probe, 4:15 min) was 17.5 C. and 19.2 C. and 20.4 C. and 19.9 C. and 18.9 C, the Temp (porcine liver samples; 100 microliters alone, different temp probe, 4:30 min) was 17.4 C. and 19 C. and 20.2 C. and 19.6 C. and 18.6 C and the Temp (porcine liver samples; 100 microliters alone, different temp probe, 4:45 min) was 17.3 C. and 18.8 C. and 20 C. and 19.4 C. and 18.4 C. For the same molecule, the Temp (porcine liver samples; 100 microliters alone, different temp probe, 5:00 min) was 17.3 C. and 18.6 C. and 19.8 C. and 19.2 C. and 18.3 C, the pH (porcine liver samples; [1]) was 6.14 and 6.55 and 6.5 and 5.7 and the pH (porcine liver samples; [2]) was 3.1 and 4.67 and 4.62 and 4.82. The pH (porcine liver samples; [3]) was 2.5 and 3.59 and 3.32 and 4.57, the Temp (porcine liver samples; [4]) was 27.4 C. and 24.5 C. and 23.4 C. and 22.8 C and the Temp (porcine liver samples; [5]) was 26.2 C. For the same molecule, the “Tissue destruction, visual observation” value (porcine liver samples) was “more violent and rapid tissue destruction than Acetic Anhydride”, the Temperature changes (liver parenchyma; 100, 200, 300 microliters after 100 or 200 microliters of 1M-15M NaOH, 21 injections) was 7.9-32 degrees Celsius and the “Final thermocouple pH after five minutes” value (liver parenchyma) was “more acidic pH”. The “Temperature changes in the first thirty seconds after injection” value (liver parenchyma; eleven of the twenty-one runs, with NaOH) was 20-30 degrees Celsius.
